What is called EC50 is the concentration that produces a half-maximal response. Read a low EC50 as higher potency in that assay.

Experimental findings from US10457707B2, “Substituted urea depsipeptide analogs as activators of the CLPP endopeptidase” (priority 2015, dated 2019) are described below.

Each structure is given as a SMILES string. ≈ marks a conversion by molar mass, not a printed value. *1 amine or outer side, *2 acyl side, *3 side chain or, on linkers, in order; H or OH if unused. Where a SMILES comes first, the peptide text is derived from it. Bridges are numbered along the chain shown (N, C = ends). [ ]: non-standard residue; d: D form. The star is where a group is joined. ξ: configuration not given here. Piperazine(2S-CO,4-Me) = CN1CCN[C@H](C(=O)O)C1; Phe(3,5-F2) = N[C@@H](Cc1cc(F)cc(F)c1)C(=O)O; NH(4-OCF3-phenyl) = FC(F)(F)Oc1ccc(N*)cc1; Morpholine(3S-CO) = O=C(O)[C@@H]1COCCN1; Pro(4S-Me) = C[C@@H]1CN[C@H](C(=O)O)C1; NH(4-Cl-2-F-phenyl) = Fc1cc(Cl)ccc1N*; Pro(4R-Me) = C[C@H]1CN[C@H](C(=O)O)C1; ξPro(4R-OH) = O=C(O)C1C[C@@H](O)CN1; ξPro(4R-Me) = C[C@H]1CNC(C(=O)O)C1; Hyp = O=C(O)[C@@H]1C[C@@H](O)CN1; NH(4-Et-phenyl) = CCc1ccc(N*)cc1; NMeT = CN[C@H](C(=O)O)[C@@H](C)O; NH(4-Me-phenyl) = Cc1ccc(N*)cc1; aThr = C[C@H](O)[C@H](N)C(=O)O; Pip = O=C(O)[C@@H]1CCCCN1; NMeA = CN[C@@H](C)C(=O)O; X1 = N#Cc1cc(N*)ccc1F; CO = O=C([*:1])[*:2]

Assay [1] concerns Streptococcus pneumoniae, R6. Kind of assay: Minimal inhibitory concentration assay. It is filed as cell-based. As to conditions: read-out: Minimal Inhibitory Concentrations S. pneumoniae R6. The procedure, abridged: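 Microbroth dilution with two-fold serial compound dilutions in broth, incubated aerobically overnight at 37° C. MIC taken as the lowest concentration preventing bacterial growth.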

The target in the next assay is T1, Sa-ClpP (Staphylococcus aureus, UniProt Q2G036).
T1 construct: made in house; host or cells: E. coli BL21(DE3)
T1 sequence (Q2G036 1-195): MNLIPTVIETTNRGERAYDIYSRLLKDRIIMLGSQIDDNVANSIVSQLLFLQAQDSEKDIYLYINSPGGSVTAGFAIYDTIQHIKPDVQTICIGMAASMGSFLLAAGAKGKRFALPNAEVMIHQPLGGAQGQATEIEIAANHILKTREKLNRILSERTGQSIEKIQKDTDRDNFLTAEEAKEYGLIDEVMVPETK
Kind of assay: Casein-BODIPY assay, second described ClpP activation method (EnzCheck Protease Assay, 384 well). In kind it is biochemical, S. aureus. To be noted: values marked †: second described ClpP activation assay. How it is done: Alternatively, the assay was carried out using EnzCheck Protease Assay (Molecular Probes, Catalog # E6638). The assay was performed in black 384 well, flat bottom, low volume plates (Greiner Bio-One, Monroe, N.C., catalog #784076). 10 μL of Tris*HCl buffer, pH 8.0 with 0.01% Triton X-100 was pipetted into each well using a Well-Mate (Thermo Scientific, Waltham, Mass.). 0.4 μL test compounds or controls (2% DMSO v/v) were added to each well using a Biomek FX liquid handling robot (Beckman Coulter, Indianapolis Ind.). After addition of test compounds and controls, 10 μL of master mix containing 2 μM Sa-ClpP and 2 μM substrate (Bodipy-FL labeled casein) in Tris*HCl buffer, pH 8.0 with 0.01% (v/v) Triton X-100, was pipetted into each well. All assays were performed in triplicate, under linear velocity conditions. Increase in fluorescent signal following activation of Sa-ClpP by test compounds and controls was measured over time period of 30 mins using filters with excitation at 485±15 nm and emission at 520±25 nm on a PHERAstar FS Multilabel reader (BMG, Cary, N.C.). […] Data analysis was done by measuring rate of casein degradation over time (slopes). Computed degradation rates (slopes) were normalized to positive (ADEP4) or negative (DMSO) controls. Using nonlinear regression curve fitting EC50 values and % activation were determined using the equation “log [agonist] vs. Response-variable slope (four parameters)-symmetrical” in the program Prism 6 (GraphPad Software, La Jolla, Calif. USA, www.graphpad.com).

Turning to `Cc1ccc(NC(=O)N[C@@H](Cc2cc(F)cc(F)c2)C(=O)N[C@@H]2C(=O)N3C[C@H](O)CC3C(=O)N(C)[C@@H](C)C(=O)N[C@@H](C)C(=O)N3C[C@H](C)CC3C(=O)O[C@H]2C)cc1` (stereo partly drawn) [Compound 31, (S)-3-(3,5-difluorophenyl)-N-((2S,6S,9S,11aS,13R,17S,18S,20aS)-13-hydroxy-2,6,9,10,18-pentamethyl-5,8,11,16,20-pentaoxohexadecahydro-1H,5H,16H-dipyrrolo[2,1-c:2′,1′-l][1]oxa[4,7,10,13]tetraazacyclohexadecin-17-yl)-2-(3-(p-tolyl)ureido)propanamide] ({NH(4-Me-phenyl)-CO}-[Phe(3,5-F2)][aThr][ξPro(4R-OH)][NMeA]A[ξPro(4R-Me)]; ester 2-C), the MIC in assay [1] was 0.195 µM (≈ 0.156 µg/mL). This compound came in with a 50% effective concentration (EC50) on Sa-ClpP of 370 ± 30 nM. For `Cc1ccc(NC(=O)N[C@@H](Cc2cc(F)cc(F)c2)C(=O)N[C@@H]2C(=O)N3CCC[C@H]3C(=O)N(C)[C@@H]([C@@H](C)O)C(=O)N[C@@H](C)C(=O)N3C[C@@H](C)C[C@H]3C(=O)O[C@H]2C)cc1` [Compound 35, (S)-3-(3,5-difluorophenyl)-N-((2S,6S,9S,11aS,17S,18S,20aS)-9-((R)-1-hydroxyethyl)-2,6,10,18-tetramethyl-5,8,11,16,20-pentaoxohexadecahydro-1H,5H,16H-dipyrrolo[2,1-c:2′,1′-l][1]oxa[4,7,10,13]tetraazacyclohexadecin-17-yl)-2-(3-(p-tolyl)ureido)propanamide] ({NH(4-Me-phenyl)-CO}-[Phe(3,5-F2)][aThr]P[NMeT]A[Pro(4S-Me)]; ester 2-C), in that order: 0.049 µM (≈ 0.0398 µg/mL) and 480 ± 30 nM. With `C[C@H]1C[C@H]2C(=O)O[C@@H](C)[C@H](NC(=O)[C@H](Cc3cc(F)cc(F)c3)NC(=O)Nc3ccc(OC(F)(F)F)cc3)C(=O)N3CCC[C@H]3C(=O)N(C)[C@@H]([C@@H](C)O)C(=O)N[C@@H](C)C(=O)N2C1` [Compound 36, (S)-3-(3,5-difluorophenyl)-N-((2S,6S,9S,11aS,17S,18S,20aS)-9-((R)-1-hydroxyethyl)-2,6,10,18-tetramethyl-5,8,11,16,20-pentaoxohexadecahydro-1H,5H,16H-dipyrrolo[2,1-c:2′,1′-l][1]oxa[4,7,10,13]tetraazacyclohexadecin-17-yl)-2-(3-(4-(trifluoromethoxy)phenyl)ureido)propanamide] ({NH(4-OCF3-phenyl)-CO}-[Phe(3,5-F2)][aThr]P[NMeT]A[Pro(4S-Me)]; ester 2-C), the MIC in assay [1] was 0.024 µM (≈ 0.0212 µg/mL). In addition, on Sa-ClpP, the EC50 was determined as 430 ± 10 nM. `CCc1ccc(NC(=O)N[C@@H](Cc2cc(F)cc(F)c2)C(=O)N[C@@H]2C(=O)N3CCC[C@H]3C(=O)N(C)[C@@H]([C@@H](C)O)C(=O)N[C@@H](C)C(=O)N3C[C@@H](C)C[C@H]3C(=O)O[C@H]2C)cc1` [Compound 37, (S)-3-(3,5-difluorophenyl)-2-(3-(4-ethylphenyl)ureido)-N-((2S,6S,9S,11aS,17S,18S,20aS)-9-((R)-1-hydroxyethyl)-2,6,10,18-tetramethyl-5,8,11,16,20-pentaoxohexadecahydro-1H,5H,16H-dipyrrolo[2,1-c:2′,1′-l][1]oxa[4,7,10,13]tetraazacyclohexadecin-17-yl)propanamide] ({NH(4-Et-phenyl)-CO}-[Phe(3,5-F2)][aThr]P[NMeT]A[Pro(4S-Me)]; ester 2-C): in assay [1], the MIC came to 0.024 µM (≈ 0.0198 µg/mL). Further, at Sa-ClpP, a half-maximal effect (EC50) was put at 350 ± 10 nM. Regarding `Cc1ccc(NC(=O)N[C@@H](Cc2cc(F)cc(F)c2)C(=O)N[C@@H]2C(=O)N3CCC[C@H]3C(=O)N(C)[C@@H]([C@@H](C)O)C(=O)N[C@@H](C)C(=O)N3C[C@H](C)C[C@H]3C(=O)O[C@H]2C)cc1` [Compound 38, (S)-3-(3,5-difluorophenyl)-N-((2R,6S,9S,11aS,17S,18S,20aS)-9-((R)-1-hydroxyethyl)-2,6,10,18-tetramethyl-5,8,11,16,20-pentaoxohexadecahydro-1H,5H,16H-dipyrrolo[2,1-c:2′,1′-l][1]oxa[4,7,10,13]tetraazacyclohexadecin-17-yl)-2-(3-(p-tolyl)ureido)propanamide] ({NH(4-Me-phenyl)-CO}-[Phe(3,5-F2)][aThr]P[NMeT]A[Pro(4R-Me)]; ester 2-C), the MIC in assay [1] was 0.02 µM (≈ 0.0162 µg/mL). At Sa-ClpP, this compound came in with an EC50 of 330 ± 10 nM. For `C[C@@H]1C[C@H]2C(=O)O[C@@H](C)[C@H](NC(=O)[C@H](Cc3cc(F)cc(F)c3)NC(=O)Nc3ccc(OC(F)(F)F)cc3)C(=O)N3CCC[C@H]3C(=O)N(C)[C@@H]([C@@H](C)O)C(=O)N[C@@H](C)C(=O)N2C1` [Compound 41, (S)-3-(3,5-difluorophenyl)-N-((2R,6S,9S,11aS,17S,18S,20aS)-9-((R)-1-hydroxyethyl)-2,6,10,18-tetramethyl-5,8,11,16,20-pentaoxohexadecahydro-1H,5H,16H-dipyrrolo[2,1-c:2′,1′-l][1]oxa[4,7,10,13]tetraazacyclohexadecin-17-yl)-2-(3-(4-(trifluoromethoxy)phenyl)ureido)propanamide] ({NH(4-OCF3-phenyl)-CO}-[Phe(3,5-F2)][aThr]P[NMeT]A[Pro(4R-Me)]; ester 2-C), in that order: 0.02 µM (≈ 0.0176 µg/mL) and 310 ± 10 nM. In the case of `Cc1ccc(NC(=O)N[C@@H](Cc2cc(F)cc(F)c2)C(=O)N[C@H]2COC(=O)[C@@H]3C[C@@H](C)CN3C(=O)[C@H](C)NC(=O)C3CCCCN3C(=O)[C@@H]3C[C@@H](O)CN3C2=O)cc1` (stereo partly drawn) [Compound 323, (S)-3-(3,5-difluorophenyl)-N-((2R,6S,8aR,14aS,16R,20S,23aS)-16-hydroxy-2,6-dimethyl-5,8,14,19,23-pentaoxooctadecahydro-1H,5H,14H,19H-pyrido[2,1-i]dipyrrolo[2,1-c:2′,1′-l][1]oxa[4,7,10,13]tetraazacyclohexadecin-20-yl)-2-(3-(p-tolyl)ureido)propanamide], the MIC in assay [1] was found to be 0.078 µM (≈ 0.0632 µg/mL). `C[C@@H]1C[C@H]2C(=O)O[C@@H](C)[C@H](NC(=O)[C@H](Cc3cc(F)cc(F)c3)NC(=O)Nc3ccc(F)c(C#N)c3)C(=O)N3CCC[C@H]3C(=O)N3CCCC[C@H]3C(=O)N[C@@H](C)C(=O)N2C1` [Compound 324, (S)-2-(3-(3-cyano-4-fluorophenyl)ureido)-3-(3,5-difluorophenyl)-N-((2R,6S,8aS,14aS,20S,21S,23aS)-2,6,21-trimethyl-5,8,14,19,23-pentaoxooctadecahydro-1H,5H,14H,19H-pyrido[2,1-i]dipyrrolo[2,1-c:2′,1′-l][1]oxa[4,7,10,13]tetraazacyclo-hexadecin-20-yl)propanamide] ({X1-CO}-[Phe(3,5-F2)][aThr]P[Pip]A[Pro(4R-Me)]; ester 2-C): the MIC in assay [1] came out at 0.625 µM (≈ 0.523 µg/mL). In the case of `C[C@@H]1C[C@H]2C(=O)OC[C@H](NC(=O)[C@H](Cc3cc(F)cc(F)c3)NC(=O)Nc3ccc4c(c3)OCO4)C(=O)N3C[C@H](O)C[C@H]3C(=O)N3CCCCC3C(=O)N[C@@H](C)C(=O)N2C1` (stereo partly drawn) [Compound 325, (S)-2-(3-(benzo[d][1,3]dioxol-5-yl)ureido)-3-(3,5-difluorophenyl)-N-((2R,6S,8aR,14aS,16R,20S,23aS)-16-hydroxy-2,6-dimethyl-5,8,14,19,23-pentaoxooctadecahydro-1H,5H,14H,19H-pyrido[2,1-i]dipyrrolo[2,1-c:2′,1′-l][1]oxa[4,7,10,13]tetraazacyclo-hexadecin-20-yl)propanamide], in assay [1], the MIC amounted to 0.078 µM (≈ 0.0655 µg/mL).

On to `C[C@@H]1C[C@H]2C(=O)O[C@@H](C)[C@H](NC(=O)[C@H](Cc3cc(F)cc(F)c3)NC(=O)Nc3ccc(F)c(C#N)c3)C(=O)N3C[C@H](O)C[C@H]3C(=O)N3CCOC[C@H]3C(=O)N[C@@H](C)C(=O)N2C1` [Compound 326, (S)-2-(3-(3-cyano-4-fluorophenyl)ureido)-3-(3,5-difluorophenyl)-N-((6aS,8R,12S,13S,15aS,17R,21S,23aS)-8-hydroxy-13,17,21-trimethyl-6,11,15,20,23-pentaoxooctadecahydro-6H,11H,15H-[1,4]oxazino[3,4-i]dipyrrolo[2,1-c:2′,1′-l][1]oxa[4,7,10,13]tetraazacyclo-hexadecin-12-yl)propanamide] ({X1-CO}-[Phe(3,5-F2)][aThr][Hyp][Morpholine(3S-CO)]A[Pro(4R-Me)]; ester 2-C), for which the MIC in assay [1] is 0.625 µM (≈ 0.534 µg/mL).

For `C[C@@H]1C[C@H]2C(=O)OC[C@H](NC(=O)[C@H](Cc3cc(F)cc(F)c3)NC(=O)Nc3ccc(Cl)cc3F)C(=O)N3CCC[C@H]3C(=O)N3CCN(C)C[C@H]3C(=O)N[C@@H](C)C(=O)N2C1` [Compound 330, (S)-2-(3-(4-chloro-2-fluorophenyl)ureido)-3-(3,5-difluorophenyl)-N-((6aS,12S,15aS,17R,21S,23aS)-2,17,21-trimethyl-6,11,15,20,23-pentaoxooctadecahydro-2H,6H,11H,15H-pyrazino[2,1-i]dipyrrolo[2,1-c:2′,1′-l][1]oxa[4,7,10,13]tetraazacyclohexadecin-12-yl)propanamide] ({NH(4-Cl-2-F-phenyl)-CO}-[Phe(3,5-F2)]SP[Piperazine(2S-CO,4-Me)]A[Pro(4R-Me)]; ester 2-C), the MIC in assay [1] was 0.039 µM (≈ 0.033 µg/mL).
